Measurements taken from patent US9617267B2, “Compounds and methods for kinase modulation, and indications therefor” (Plexxikon Inc., priority 2009, dated 2017).
Where two headings read alike, the source gives them in different places.

Key:
B-Raf [1] = target: B-Raf (Homo sapiens (Human), UniProt P15056); assay: B-Raf kinase activity biochemical assay (AlphaScreen, biotin-MEK1 phosphorylation); conditions: B-Raf
How it was run: (§1)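 Compounds from a 0.1 mM DMSO stock were tested at 8 serially diluted points. Kinase reactions with 100 μM ATP (final) ran 45 min at room temperature, then were stopped with EDTA buffer containing anti-phospho-MEK1/2 antibody plus streptavidin donor and protein A acceptor beads.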

B-Raf [2] = assay: as above; conditions: for Biochemical activity ratio B/V600E: ratio of IC50 B-Raf / B-Raf V600E; for Biochemical activity ratio B/C: ratio of IC50 B-Raf / c-Raf-1
How it was run: as §1

B-Raf V600E = B-Raf V600E (Homo sapiens (Human), UniProt P15056, V600E); assay: B-Raf V600E kinase activity biochemical assay (AlphaScreen, biotin-MEK1 phosphorylation); conditions: for IC50: B-Raf V600E; for Biochemical activity ratio V600E/C: ratio of IC50 B-Raf V600E / c-Raf-1
Chain of B-Raf V600E (P15056 whole entry V600E): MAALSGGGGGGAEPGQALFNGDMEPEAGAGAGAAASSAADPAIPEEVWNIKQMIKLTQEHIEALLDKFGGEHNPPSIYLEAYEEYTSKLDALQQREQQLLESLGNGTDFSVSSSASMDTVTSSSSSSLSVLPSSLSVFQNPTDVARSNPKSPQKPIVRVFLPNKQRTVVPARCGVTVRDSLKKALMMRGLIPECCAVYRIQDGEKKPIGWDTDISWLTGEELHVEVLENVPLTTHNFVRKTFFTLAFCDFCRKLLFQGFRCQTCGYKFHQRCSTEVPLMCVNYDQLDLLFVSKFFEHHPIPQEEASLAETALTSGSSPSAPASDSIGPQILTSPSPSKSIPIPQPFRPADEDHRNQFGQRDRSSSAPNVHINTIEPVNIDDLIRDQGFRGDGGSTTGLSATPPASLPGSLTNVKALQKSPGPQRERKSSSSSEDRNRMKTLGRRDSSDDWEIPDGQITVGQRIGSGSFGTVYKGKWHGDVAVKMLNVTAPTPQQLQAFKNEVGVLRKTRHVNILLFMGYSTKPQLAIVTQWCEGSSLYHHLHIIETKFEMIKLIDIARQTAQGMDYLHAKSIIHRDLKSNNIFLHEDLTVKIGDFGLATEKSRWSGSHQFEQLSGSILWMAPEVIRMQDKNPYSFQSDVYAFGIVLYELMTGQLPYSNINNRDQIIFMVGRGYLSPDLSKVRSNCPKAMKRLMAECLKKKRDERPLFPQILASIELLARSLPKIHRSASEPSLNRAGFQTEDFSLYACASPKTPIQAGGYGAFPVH
How it was run: as §1

c-Raf-1 = c-Raf-1 (Homo sapiens, UniProt P04049); assay: c-Raf-1 kinase activity biochemical assay (AlphaScreen, biotin-MEK1 phosphorylation)
Chain of c-Raf-1 (P04049 whole entry, looked up): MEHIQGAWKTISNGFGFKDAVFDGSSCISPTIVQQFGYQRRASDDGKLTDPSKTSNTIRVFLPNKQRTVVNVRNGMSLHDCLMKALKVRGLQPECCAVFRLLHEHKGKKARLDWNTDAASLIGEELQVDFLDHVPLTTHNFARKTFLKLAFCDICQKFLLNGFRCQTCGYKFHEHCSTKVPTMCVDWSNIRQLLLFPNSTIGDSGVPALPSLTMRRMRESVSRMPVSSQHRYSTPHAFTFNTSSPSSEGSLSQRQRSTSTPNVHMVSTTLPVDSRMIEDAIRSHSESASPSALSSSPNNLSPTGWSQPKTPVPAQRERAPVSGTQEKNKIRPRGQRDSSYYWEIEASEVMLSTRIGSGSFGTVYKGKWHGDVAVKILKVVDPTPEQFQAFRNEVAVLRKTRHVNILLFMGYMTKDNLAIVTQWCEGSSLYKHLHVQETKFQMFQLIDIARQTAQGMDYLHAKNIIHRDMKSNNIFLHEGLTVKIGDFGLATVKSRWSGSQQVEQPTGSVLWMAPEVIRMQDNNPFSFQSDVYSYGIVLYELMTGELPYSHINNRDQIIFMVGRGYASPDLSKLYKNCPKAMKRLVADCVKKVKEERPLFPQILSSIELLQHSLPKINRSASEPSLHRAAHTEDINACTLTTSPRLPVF
How it was run: as §1

CYP1A2 = CYP1A2 (Homo sapiens (Human), UniProt P05177); assay: CYP enzyme inhibition, fluorescent substrate (CEC)
Chain of CYP1A2 (P05177 whole entry): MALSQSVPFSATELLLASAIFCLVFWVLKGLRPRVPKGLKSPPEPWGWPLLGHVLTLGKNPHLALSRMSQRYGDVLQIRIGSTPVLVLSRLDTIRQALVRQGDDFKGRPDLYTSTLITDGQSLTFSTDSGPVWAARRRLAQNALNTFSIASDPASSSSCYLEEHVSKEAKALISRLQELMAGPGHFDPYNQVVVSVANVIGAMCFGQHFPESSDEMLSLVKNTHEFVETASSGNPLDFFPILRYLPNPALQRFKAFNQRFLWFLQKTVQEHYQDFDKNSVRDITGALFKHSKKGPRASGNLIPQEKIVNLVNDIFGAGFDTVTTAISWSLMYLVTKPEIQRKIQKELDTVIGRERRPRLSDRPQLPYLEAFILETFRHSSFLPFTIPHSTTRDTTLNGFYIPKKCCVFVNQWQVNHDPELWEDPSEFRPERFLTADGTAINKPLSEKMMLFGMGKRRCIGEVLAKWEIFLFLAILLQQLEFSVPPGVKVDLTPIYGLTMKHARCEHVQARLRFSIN
How it was run: (§2)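 IC50 derived from loss of fluorescent metabolite across a 10-point 1:1 dilution series. CYP2D6: 1.5 pmol enzyme, 1.5 μM AMMC, 30 min at 37 °C, 409/530 nm; CYP1A2: 0.5 pmol, 5 μM CEC, 15 min, 409/460 nm. Compounds pre-incubated 10 min in NADPH-regenerating mix.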

CYP2C19 = CYP2C19 (Homo sapiens (Human), UniProt P33261); assay: CYP enzyme inhibition, fluorescent substrate (CEC)
Chain of CYP2C19 (P33261 whole entry): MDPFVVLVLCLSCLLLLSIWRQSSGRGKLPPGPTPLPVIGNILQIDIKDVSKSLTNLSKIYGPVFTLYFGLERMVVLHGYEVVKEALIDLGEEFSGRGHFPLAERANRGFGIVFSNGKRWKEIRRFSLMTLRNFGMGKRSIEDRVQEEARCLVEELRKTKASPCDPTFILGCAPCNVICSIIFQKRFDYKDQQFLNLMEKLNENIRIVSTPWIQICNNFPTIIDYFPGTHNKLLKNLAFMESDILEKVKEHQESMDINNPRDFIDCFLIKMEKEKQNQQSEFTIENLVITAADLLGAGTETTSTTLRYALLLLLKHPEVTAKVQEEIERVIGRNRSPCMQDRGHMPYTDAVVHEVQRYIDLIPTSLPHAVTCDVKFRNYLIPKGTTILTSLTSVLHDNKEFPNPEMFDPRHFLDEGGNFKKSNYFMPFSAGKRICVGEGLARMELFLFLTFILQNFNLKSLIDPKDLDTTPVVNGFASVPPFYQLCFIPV
How it was run: (§3)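 10-pt 1:1 serial dilution in co-factor mix (DMSO stock 100 mM); 10 min preincubation, 37 °C; reaction at 37 °C. Readout: fluorescent metabolite of probe substrate. IC50 from signal vs [compound].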

CYP2C9 = CYP2C9 (Homo sapiens (Human), UniProt P11712); assay: CYP enzyme inhibition, fluorescent substrate (MFC)
Chain of CYP2C9 (P11712 whole entry): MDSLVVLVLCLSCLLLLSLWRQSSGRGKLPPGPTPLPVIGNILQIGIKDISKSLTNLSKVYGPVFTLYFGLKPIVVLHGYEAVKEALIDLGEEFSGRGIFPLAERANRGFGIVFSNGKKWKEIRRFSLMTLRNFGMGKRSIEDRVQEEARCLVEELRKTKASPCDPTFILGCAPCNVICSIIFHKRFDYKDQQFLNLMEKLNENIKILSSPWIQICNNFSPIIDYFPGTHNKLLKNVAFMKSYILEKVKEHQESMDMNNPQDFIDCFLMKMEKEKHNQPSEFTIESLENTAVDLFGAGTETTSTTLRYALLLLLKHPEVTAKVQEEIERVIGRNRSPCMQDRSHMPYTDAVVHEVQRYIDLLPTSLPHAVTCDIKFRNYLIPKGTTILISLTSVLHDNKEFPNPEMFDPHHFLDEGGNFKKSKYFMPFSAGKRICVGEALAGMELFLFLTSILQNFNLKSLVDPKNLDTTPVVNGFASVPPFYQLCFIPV
How it was run: as §3

CYP2D6 = CYP2D6 (Homo sapiens (Human), UniProt P10635); assay: CYP enzyme inhibition, fluorescent substrate (AMMC); assay type: in vitro ADME; conditions: read-out: Cyp IC50 2D6
Chain of CYP2D6 (P10635 whole entry): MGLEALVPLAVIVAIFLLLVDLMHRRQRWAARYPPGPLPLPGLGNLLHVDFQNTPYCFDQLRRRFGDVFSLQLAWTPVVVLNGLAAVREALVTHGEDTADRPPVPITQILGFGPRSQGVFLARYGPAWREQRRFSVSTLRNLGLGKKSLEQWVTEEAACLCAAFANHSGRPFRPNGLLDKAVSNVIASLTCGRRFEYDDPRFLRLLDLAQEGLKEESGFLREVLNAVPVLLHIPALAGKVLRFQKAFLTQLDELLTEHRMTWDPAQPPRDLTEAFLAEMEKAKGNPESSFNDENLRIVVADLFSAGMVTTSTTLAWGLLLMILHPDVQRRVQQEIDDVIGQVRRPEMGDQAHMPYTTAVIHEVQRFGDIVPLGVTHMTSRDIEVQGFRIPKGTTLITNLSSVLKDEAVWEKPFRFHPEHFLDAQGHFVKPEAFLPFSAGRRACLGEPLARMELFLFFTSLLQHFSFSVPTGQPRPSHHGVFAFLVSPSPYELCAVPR
How it was run: as §2

CYP3A4 = CYP3A4 (Homo sapiens (Human), UniProt P08684); assay: CYP enzyme inhibition, fluorescent substrate BFC; conditions: human, CYP3A4 enzyme (BD Biosciences), probe BFC
Chain of CYP3A4 (P08684 whole entry): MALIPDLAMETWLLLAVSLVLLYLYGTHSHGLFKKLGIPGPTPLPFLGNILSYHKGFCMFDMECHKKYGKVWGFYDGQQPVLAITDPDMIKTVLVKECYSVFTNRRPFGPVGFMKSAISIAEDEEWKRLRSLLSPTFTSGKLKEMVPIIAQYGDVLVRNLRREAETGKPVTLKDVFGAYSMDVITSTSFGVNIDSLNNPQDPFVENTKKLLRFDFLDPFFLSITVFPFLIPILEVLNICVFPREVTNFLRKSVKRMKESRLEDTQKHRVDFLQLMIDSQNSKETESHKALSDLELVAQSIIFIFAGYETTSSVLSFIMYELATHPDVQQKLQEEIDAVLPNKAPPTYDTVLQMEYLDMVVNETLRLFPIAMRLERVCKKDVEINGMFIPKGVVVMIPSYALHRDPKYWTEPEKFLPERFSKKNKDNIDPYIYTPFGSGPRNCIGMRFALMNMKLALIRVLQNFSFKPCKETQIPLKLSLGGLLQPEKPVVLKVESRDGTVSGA
How it was run: as §3

CYP3A4(BQ) = CYP3A4(BQ) (Homo sapiens (Human), UniProt P08684); assay: CYP enzyme inhibition, fluorescent substrate BQ
Chain of CYP3A4(BQ) (P08684 whole entry): as above
How it was run: as §3

[3] = Relative solubility by turbidity threshold concentration in aqueous buffers (pH 1.5, 4.5, 6.8, 7.4); assay type: physicochemical; conditions: for turbidity threshold (L, M, H) 1.4: pH 1.4 [sic] (method: SGF pH 1.5); for turbidity threshold (L, M, H) 4.5: pH 4.5 (SIF); for turbidity threshold (L, M, H) 6.8: pH 6.8 (SIF); for turbidity threshold (L, M, H) 7.4: pH 7.4 (HEPES)
How it was run: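 Solubility class (high >250 μM, moderate 31.3–250 μM, low <31.3 μM) comes from the concentration where absorbance reaches a 0.01 threshold, averaged across 490/535/650 nm. Samples were compound dilutions from DMSO stock, 1 μL into 99 μL buffer at pH 1.5, 4.5, 6.8 or 7.4.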

CYP3A4(BFC) = CYP3A4(BFC) (Homo sapiens (Human), UniProt P08684); assay: CYP enzyme inhibition, fluorescent substrate BFC
Chain of CYP3A4(BFC) (P08684 whole entry): as above
How it was run: as §3

[4] = read-out: Cyp IC50 2C19, CYP2C19, substrate CEC
[5] = read-out: Cyp IC50 2C9, CYP2C9, substrate MFC
[6] = read-out: Cyp IC50 3A4(BQ), CYP3A4, substrate BQ
[7] = read-out: Cyp IC50 3A4(BFC), CYP3A4, substrate BFC

Chain of B-Raf (Homo sapiens (Human), UniProt P15056) (P15056 whole entry): as the sequence (P15056 whole entry V600E) above, with E600V counted along it

IC50 (CYP3A4(BQ)) [µM] | IC50 (CYP2C19) [µM] | SMILES | IC50 (B-Raf [1]) [µM] | Biochemical activity ratio B/V600E (B-Raf [2]) | Biochemical activity ratio B/C (B-Raf [2]) | IC50 (B-Raf V600E) [µM] | Biochemical activity ratio V600E/C (B-Raf V600E) | IC50 (c-Raf-1) [µM] | turbidity threshold (L, M, H) 1.4 [3] | turbidity threshold (L, M, H) 4.5 [3] | turbidity threshold (L, M, H) 6.8 [3] | turbidity threshold (L, M, H) 7.4 [3] | IC50 (CYP1A2; human, 15 min) [µM] | IC50 (CYP2C19; [4]) [µM] | IC50 (CYP2D6) [µM] | IC50 (CYP3A4(BFC)) [µM] | IC50 (CYP3A4(BQ); [6]) [µM] | IC50 (CYP2C9) [µM] | IC50 (CYP3A4(BFC); [7]) [µM] | further results
> 10 | – | CCCS(=O)(=O)Nc1ccc(F)c(C(=O)c2c[nH]c3nccc(NC4CCCC4)c23)c1F [P-2012, Propane-1-sulfonic acid [3-(4-cyclopentylamino-1H-pyrrolo[2,3-b]pyridine-3-carbonyl)-2,4-difluoro-phenyl]-amide] | > 0.1 | 0.1-10 | >10 | < 0.1 | 0.1-10 | < 0.1 | – | – | – | – | – | – | – | – | – | – | – | IC50 at 15 min (CYP1A2; human, CYP1A2 enzyme (BD Biosciences), probe CEC): > 10 µM; IC50 at 30 min (CYP2C19; human, CYP2C19 enzyme (BD Biosciences), probe CEC): > 10 µM; IC50 at 45 min (CYP2C9; human, CYP2C9 enzyme (BD Biosciences), probe MFC): > 10 µM; IC50 at 30 min (CYP2D6; human, CYP2D6 enzyme (BD Biosciences), probe AMMC): > 10 µM; IC50 at 30 min (CYP3A4): > 10 µM
– | – | COCCNc1ncnc2[nH]cc(C(=O)c3c(F)ccc(NS(=O)(=O)c4ccc(C(F)(F)F)cc4)c3F)c12 [P-1058, N-{2,4-Difluoro-3-[4-(2-methoxy-ethylamino)-7H-pyrrolo[2,3-d]pyrimidine-5-carbonyl]-phenyl}-4-trifluoromethyl-benzenesulfonamide] | < 0.1 | 0.1-10 | 0.1-10 | > 0.1 | >10 | < 0.1 | M (moderate solubility if the threshold concentration is 31.3 μM to 250 μM) | L (low solubility if the threshold concentration is <31.3 μM) | L (low solubility if the threshold concentration is <31.3 μM) | L (low solubility if the threshold concentration is <31.3 μM) | > 10 | > 10 | > 10 | 5 to 10 | > 10 | – | – | IC50 (CYP2C9; [5]): > 10 µM
> 10 | > 10 | N#Cc1c(F)cnc2[nH]cc(C(=O)c3c(F)ccc(NS(=O)(=O)c4ccc(C(F)(F)F)cc4)c3F)c12 [P-2009, N-[3-(4-Cyano-5-fluoro-1H-pyrrolo[2,3-b]pyridine-3-carbonyl)-2,4-difluoro-phenyl]-4-trifluoromethyl-benzenesulfonamide] | < 0.1 | 0.1-10 | >10 | > 0.1 | >10 | < 0.1 | L (low solubility if the threshold concentration is <31.3 μM) | M (moderate solubility if the threshold concentration is 31.3 μM to 250 μM) | M (moderate solubility if the threshold concentration is 31.3 μM to 250 μM) | M (moderate solubility if the threshold concentration is 31.3 μM to 250 μM) | – | – | > 10 | > 10 | – | > 10 | – | IC50 (CYP1A2): > 10 µM
– | – | O=C(c1c(F)ccc(NS(=O)(=O)c2ccc(C(F)(F)F)cc2)c1F)c1c[nH]c2ncnc(NC3CCOC3)c12 (stereo not shown) [P-1054, N-{2,4-Difluoro-3-[4-(tetrahydro-furan-3-ylamino)-7H-pyrrolo[2,3-d]pyrimidine-5-carbonyl]-phenyl}-4-trifluoromethyl-benzenesulfonamide] | < 0.1 | 0.1-10 | 0.1-10 | < 0.1 | >10 | < 0.1 | M (moderate solubility if the threshold concentration is 31.3 μM to 250 μM) | L (low solubility if the threshold concentration is <31.3 μM) | L (low solubility if the threshold concentration is <31.3 μM) | L (low solubility if the threshold concentration is <31.3 μM) | > 10 | > 10 | > 10 | – | > 10 | 5 to 10 | > 10 | –
– | – | O=C(c1c(F)ccc(NS(=O)(=O)c2ccc(C(F)(F)F)cc2)c1F)c1c[nH]c2ncnc(NCC3CC3)c12 [P-1052, N-{3-[4-(Cyclopropylmethyl-amino)-7H-pyrrolo[2,3-d]pyrimidine-5-carbonyl]-2,4-difluoro-phenyl}-4-trifluoromethyl-benzenesulfonamide] | < 0.1 | 0.1-10 | >10 | < 0.1 | >10 | < 0.1 | L (low solubility if the threshold concentration is <31.3 μM) | L (low solubility if the threshold concentration is <31.3 μM) | L (low solubility if the threshold concentration is <31.3 μM) | L (low solubility if the threshold concentration is <31.3 μM) | – | < 5 | > 10 | 5 to 10 | > 10 | – | – | IC50 (CYP1A2; read-out: Cyp IC50 1A2, CYP1A2, substrate CEC): > 10 µM; IC50 (CYP2C9; [5]): < 5 µM
– | – | CCc1ccc(S(=O)(=O)Nc2ccc(F)c(C(=O)c3c[nH]c4ncnc(OC)c34)c2F)cc1 [P-1008, N-[2,4-Difluoro-3-(4-methoxy-7H-pyrrolo[2,3-d]pyrimidine-5-carbonyl)-phenyl]-4-ethyl-benzenesulfonamide] | > 0.1 | 0.1-10 | 0.1-10 | > 0.1 | 0.1-10 | > 0.1 | M (moderate solubility if the threshold concentration is 31.3 μM to 250 μM) | M (moderate solubility if the threshold concentration is 31.3 μM to 250 μM) | L (low solubility if the threshold concentration is <31.3 μM) | M (moderate solubility if the threshold concentration is 31.3 μM to 250 μM) | > 10 | > 10 | > 10 | – | > 10 | 5 to 10 | > 10 | –
> 10 | 5 to 10 | CCCS(=O)(=O)Nc1ccc(F)c(C(=O)c2c[nH]c3ncc(C)c(Cl)c23)c1F [P-2001, Propane-1-sulfonic acid [3-(4-chloro-5-methyl-1H-pyrrolo[2,3-b]pyridine-3-carbonyl)-2,4-difluoro-phenyl]-amide] | < 0.1 | 0.1-10 | 0.1-10 | < 0.1 | 0.1-10 | < 0.1 | M (moderate solubility if the threshold concentration is 31.3 μM to 250 μM) | M (moderate solubility if the threshold concentration is 31.3 μM to 250 μM) | M (moderate solubility if the threshold concentration is 31.3 μM to 250 μM) | M (moderate solubility if the threshold concentration is 31.3 μM to 250 μM) | – | – | > 10 | > 10 | – | > 10 | – | IC50 (CYP1A2): > 10 µM

SMILES | IC50 (CYP3A4(BQ)) [µM] | IC50 (CYP2C19) [µM] | IC50 (B-Raf [1]) [µM] | Biochemical activity ratio B/V600E (B-Raf [2]) | Biochemical activity ratio B/C (B-Raf [2]) | IC50 (B-Raf V600E) [µM] | Biochemical activity ratio V600E/C (B-Raf V600E) | IC50 (c-Raf-1) [µM] | turbidity threshold (L, M, H) 1.4 [3] | turbidity threshold (L, M, H) 4.5 [3] | turbidity threshold (L, M, H) 6.8 [3] | turbidity threshold (L, M, H) 7.4 [3] | IC50 (CYP1A2; human, 15 min) [µM] | IC50 (CYP2C19; [4]) [µM] | IC50 (CYP2D6) [µM] | IC50 (CYP3A4(BFC)) [µM] | IC50 (CYP3A4(BQ); [6]) [µM] | IC50 (CYP2C9) [µM] | IC50 (CYP3A4(BFC); [7]) [µM] | further results
O=C(c1c(F)ccc(NS(=O)(=O)c2ccc(C(F)(F)F)cc2)c1F)c1c[nH]c2ncnc(OCC3CC3)c12 [P-1053, N-[3-(4-Cyclopropylmethoxy-7H-pyrrolo[2,3-d]pyrimidine-5-carbonyl)-2,4-difluoro-phenyl]-4-trifluoromethyl-benzenesulfonamide] | – | 5 to 10 | < 0.1 | 0.1-10 | 0.1-10 | > 0.1 | >10 | < 0.1 | L (low solubility if the threshold concentration is <31.3 μM) | L (low solubility if the threshold concentration is <31.3 μM) | L (low solubility if the threshold concentration is <31.3 μM) | L (low solubility if the threshold concentration is <31.3 μM) | > 10 | – | > 10 | – | > 10 | 5 to 10 | > 10 | –
